Test results published in patent US20050165070A1, “Compositions with a biostimulating activity” (priority 2002, published 2005).

What was measured:
peppers cv. Pathos = assay: Biostimulating effect on transplanted pepper seedlings in tunnel, production yield; type: in vivo; settings: 10 g/hl; for Berries kg per lot: repeated every 10 days, harvest July 29-August 29; for Increase (%) of berries kg per lot: versus not treated Thesis E
Excerpt: The whole mixture was brought to a volume of 1 liter by the addition of water, in order to obtain solutions of each compound with a concentration of 50 g/liter. Determination of the amplification of the biostimulating effect obtained by applying compound (I) in the presence of a solution of proline. Seedlings of peppers cv. Pathos were transplanted in a tunnel (April 16, AT). The lots were distributed according to the random block scheme with 5 repetitions per thesis. Each repetition consisted of 15 plants. At the moment of transplanting, the seedlings have a common degree of vegetative development. […] Said treatment was subsequently repeated every 10 days, in a preventive manner, in order to oppose any possible thermal or water stress or stress due to vegetative development. Harvesting was effected from July 29 for the following 30 days, and a production increase was registered in theses B and D, with respect to theses A and C, as indicated in Table 2. The yields are obtained from the average production obtained during the above harvesting period (July 29-August 29).

courgettes cv. Diamone = assay: Biostimulating activity on transplanted courgette seedlings in field, fruit yield; type: in vivo; settings: for Fruit per lot: treatment repeated every 10 days, harvest June 11-August 27, average per lot; for Increase (%) of fruit per lot: with respect to non-treated Thesis F
Excerpt: The following examples are provided for merely illustrative purpose and in no way intend to limit the scope of the present invention.
When the biological activity experimentally found is higher than the value of E, said activity should be considered as a synergic effect.
An amount of 50 g of each compound under examination (thiazolidine-4-carboxylic acid (compound I) and N-acyl-thiazolidine-4-carboxylic acid (compound II)) were dispersed in water (800 cc) and vigorously stirred. An excess of 5%, with respect to the stoichiometric quantity, of sodium bicarbonate, was then added in portions. 150 g of a non-ionic surface-active agent were added to favour application to the leaves. The whole mixture was brought to a volume of 1 liter by the addition of water, in order to obtain solutions of each compound with a concentration of 50 g/liter.
Assessment of the biostimulating activity of compound (I), compound (II) and their synergic mixture.
Seedlings of courgettes cv. Diamone, sown and cultivated in a hot greenhouse, were transplanted in a field (May 11, Leggiuno, (Varese)—Italy).
The theses were randomly arranged in lots with four repetitions for each thesis. Each lot consisted of six plants in rows situated at a distance of 1 meter from each other, and at a distance of 1 meter from each other in the same row.
Weeding was performed before the transplant, using 1 kg/ha of trifluralin (volume 550 l/ha).
At the moment transplanting, the seedlings have a common degree of vegetative development.
In order to minimize transplant stress, the seedlings planted were treated respectively with: • Thesis A: with compound (I) (ATC) at a dose of 5 g/hl; • Thesis B: with compound (I) (ATC) at a dose of 10 g/hl; • Thesis C: with compound (II) (AATC) at a dose of 5 g/hl; • Thesis D: with compound (II) (AATC) at a dose of 10 g/hl; • Thesis E: with compound (I) (ATC) at a dose of 5 g/hl in a mixture with compound (II) (AATC) at a dose of 5 g/hl; • Thesis F: no biostimulating treatment.
Said treatment was subsequently repeated every 10 days, in a preventive manner, in order to oppose any possible thermal or water stress or stress due to vegetative development. Harvesting was effected from June 11 to August 27, and the yield increases indicated in Table 1, were registered in the treated theses (A, B, C, D, E), with respect to the non-treated Thesis F. The yields are obtained from the average amount of fruit obtained in each lot during the above-mentioned harvesting period (June 11-August 27).

O=C(O)[C@@H]1CSCN1 [ATC, R-(−)-thiazolidine-4-carboxylic acid]
Berries kg per lot (peppers cv. Pathos): 25.80 kg per lot | Increase (%) of berries kg per lot (peppers cv. Pathos): +4.5% | Fruit per lot (courgettes cv. Diamone; 5 g/hl): 100 | Increase (%) of fruit per lot (courgettes cv. Diamone; 5 g/hl): +3.1% | Fruit per lot (courgettes cv. Diamone; 10 g/hl): 105 | Increase (%) of fruit per lot (courgettes cv. Diamone; 10 g/hl): +8.2%

CC(=O)N1CSCC1C(=O)O (stereo not drawn) [AATC, N-acetylthiazolidine-4-carboxylic acid]
Berries kg per lot (peppers cv. Pathos): 26.40 kg per lot | Increase (%) of berries kg per lot (peppers cv. Pathos): +6.9% | Fruit per lot (courgettes cv. Diamone; 5 g/hl): 102 | Increase (%) of fruit per lot (courgettes cv. Diamone; 5 g/hl): +5.2% | Fruit per lot (courgettes cv. Diamone; 10 g/hl): 109 | Increase (%) of fruit per lot (courgettes cv. Diamone; 10 g/hl): +12.4%
